The source of these data is patent US20240217946A1, “ANTIDEPRESSANT AND ANXIOLYTIC SUBSTITUTED CINNAMAMIDE COMPOUND” (TASLY PHARMACEUTICAL GROUP CO., LTD., priority 2021, published 2024).

The test system of test [1] is NA reuptake in rat brain synaptosomes. Kind of test: 3H-NA reuptake by rat brain synaptosomes. The class given is biochemical. The note with it: 3H-NA 10 nM, rat brain synaptosomes; read-out: NA inhibition rate % IC50. The text has this:
At present, it is believed that absolute or relative deficiencies of the central monoamine neurotransmitters 5-hydroxytryptamine (5-HT), norepinephrine (NA) and dopamine (DA) are closely related to depression and anxiety.
Synaptosomes were separated using methods in literature to prepare brain synaptosomes. SD rats were rapidly decapitated with a small animal decapitator. After decapitation, brains were taken out quickly and precooled in an ice-water mixture, and the pia mater and vascular tissue were removed. Brain tissue was taken out. 10 times volume (ml/g) of 10 mM Tris HCl buffer (containing 0.32 M sucrose, pH 7.4) was added, an ultrasonic cell pulverizer was used for homogenization (maintaining at a low temperature), and the brain tissue was homogenized and centrifuged for 10 min (4° C., 1,000 g). After balanced centrifugation (1500 g, 10 min) at 4° C., precipitate was discarded, then supernatant was taken, and centrifugation (20000 g) was performed again for 30 min. The supernatant was discarded and the precipitate, i.e. crude extract of synaptic corpuscles, was retained. The precipitate was further suspended in 0.32 M cold sucrose solution and then carefully laid on 1.2 M and 0.8 M (10 ml each) cold sucrose gradient solutions which had been laid sequentially on the bottom of the tube, followed by balanced centrifugation (38000 g) at 4 °C for 60 min. A suspension band at the 0.8-1.2 M sucrose interface was carefully collected with a puncture needle, which was placed in 10 ml of 0.32 M cold sucrose solution and mixed well, and equilibrium centrifuged (20000 g) at 4 °C for 30 min. The precipitate was refined brain synaptosomes. […]
The percentage inhibition of isotope ligand binding by each compound was calculated according to the following equation: […]

In a further test the test system is C57 BL/6 mice. Kind of test: Mice tail suspension test after single oral administration. The conditions noted are these: 30 min after single administration; for Immobility time within 6 min: n = 10, mean ± SD. The class given is in vivo. An excerpt: “Behavioral despair” models were developed by Porsolt et al. in 1977, including rats and mice forced swimming models and mice tail suspension models, which were acute stress models. Mice tail suspension experiment was a simple and easy-to-implement experimental method for evaluating antidepressant drugs introduced by Stern et al. in 1985, and its principle was the same as that of forced swimming “immobility” experiment.
40 mice were divided into 4 groups according to the Excel complete random grouping method, with 10 animals in each group. […] Therefore, in this experimental study, with 30 mg/kg as the low dosage of compound M2, 60 mg/kg was set as the high dosage of compound M2 to conduct research in comparison with 60 mg/kg compound I-5.
Each test group was administered intragastrically (i.g.) at 0.2 ml/10 g body weight.
Mice tail suspension test was carried out 30 min after a single oral administration, and the tail suspension lasted for 6 min. The immobility time of mice within 6 min was recorded.
Data was expressed as mean±standard (mean±SD) difference, and statistics of data differences were made by one-way analysis of variance (ANOVA) or nonparametric test, and differences between groups were determined by P<0.05.

In the case of `NC(=O)/C=C/c1cc2c(c(C(F)(F)F)c1)OCO2` [Compound M2], the IC50 in test [1] stood at 23.5 ± 3.56 nM. The “Immobility time within 6 min” value in the test with C57 BL/6 mice (30 mg/kg i.g.) stood at 183.9 ± 43.5 s; in the test on C57 BL/6 mice (60 mg/kg i.g.), 171.8 ± 21.7 s. For the same molecule, the “effect on immobility time of mice in tail suspension vs blank group” value in the test with C57 BL/6 mice (30 mg/kg) is “no statistically significant difference”; with C57 BL/6 mice (60 mg/kg) it was “significantly shortened”.

Regarding `CC(C)CNC(=O)/C=C/c1cc2c(c(C(F)(F)F)c1)OCO2` [Compound I-5], the IC50 in test [1] is 17.2 ± 1.59 nM. Besides, the “Immobility time within 6 min” value in the test on C57 BL/6 mice (60 mg/kg i.g.) is reported as 218.0 ± 35.3 s. In the test on C57 BL/6 mice (60 mg/kg), the “effect on immobility time of mice in tail suspension vs blank group” value is “not significantly affected”.

Broadly, the IC50 is the concentration needed to halve the response being measured.
